Assay results published in PMC7756412 (2020).

How the values were obtained:
[1] = test system: Myc3l-dup5 (DNA, G4) GATCAGTTTTACTGATCGGGTGGTGGGTGGGGAAGG; experiment: CD melting, 265 nm; conditions: 120 mM Na+; 100 mM NaCl, 20 mM sodium phosphate pH 7; 1 equiv PIQ; quadruplex domain; derived from two Tm (66.3, 73.8)
[2] = test system: Myc-dup5 (DNA, G4) GATCAGTTTTACTGATCGGGTGGGTAGGGTGGGTA; experiment: UV melting, 260 nm; conditions: 120 mM Na+; 100 mM NaCl, 20 mM sodium phosphate pH 7; 1 equiv PIQ; duplex domain; derived from two Tm (67.8, 73.5)
[3] = test system: Myc-dup3 (DNA, G4) TGAGGGTGGGTAGGGTGGGCTAGTCATTTTGACTAG; experiment: ITC, two-site fit; conditions: 120 mM K+; 100 mM KCl, 20 mM potassium phosphate pH 7.0, 5% DMSO, 40 °C; high-affinity site
[4] = test system: Myc3l-dup5 (DNA, G4) GATCAGTTTTACTGATCGGGTGGTGGGTGGGGAAGG; experiment: ITC, two-site fit; conditions: 120 mM K+; 100 mM KCl, 20 mM potassium phosphate pH 7.0, 5% DMSO, 40 °C; high-affinity site
[5] = test system: Myc-dup5 (DNA, G4) GATCAGTTTTACTGATCGGGTGGGTAGGGTGGGTA; experiment: CD melting, 265 nm; conditions: 120 mM Na+; 100 mM NaCl, 20 mM sodium phosphate pH 7; 5 µM DNA, 1 equiv PIQ; quadruplex domain; 53.2 to 69.7 °C
[6] = test system: Myc3l-dup5 (DNA, G4) GATCAGTTTTACTGATCGGGTGGTGGGTGGGGAAGG; experiment: UV melting, 260 nm; conditions: 120 mM Na+; 100 mM NaCl, 20 mM sodium phosphate pH 7; 1 equiv PIQ; duplex domain; derived from two Tm (69.5, 76.1)
[7] = test system: Myc-dup3 (DNA, G4) TGAGGGTGGGTAGGGTGGGCTAGTCATTTTGACTAG; experiment: UV melting, 260 nm; conditions: 120 mM Na+; 100 mM NaCl, 20 mM sodium phosphate pH 7; 1 equiv PIQ; duplex domain; derived from two Tm (63.6, 70.8)
[8] = test system: Myc-dup5 (DNA, G4) GATCAGTTTTACTGATCGGGTGGGTAGGGTGGGTA; experiment: NMR titration, chemical shift perturbation; conditions: K+ (10 mM potassium phosphate); pH 7.0, 20 °C; 5' quadruplex-duplex junction; ITC isotherm not reliably fitted (Ka n.d.)
[9] = test system: Myc-dup3 (DNA, G4) TGAGGGTGGGTAGGGTGGGCTAGTCATTTTGACTAG; experiment: CD melting, 265 nm; conditions: 120 mM Na+; 100 mM NaCl, 20 mM sodium phosphate pH 7; 5 µM DNA, 1 equiv PIQ; quadruplex domain; 44.7 to 68.2 °C

In the case of `CCN(CC)CCCNC(=O)c1ccc(-c2c3cccc(C)c3[n+](C)c3c2[nH]c2c(C)cccc23)cc1`, the ΔTm [1] was 7.5 °C, the ΔTm [2] was 5.7 °C and the Ka [3] was “(1.6±0.4)×10^7 M^-1”. The Ka [4] was “(1.6±0.2)×10^7 M^-1”, the ΔTm [5] was 17 °C and the ΔTm [6] was 6.6 °C. The ΔTm [7] was 7.2 °C, the binding [8] was “yes” and the ΔTm [9] was 23 °C.
